Legend:
Test in all cases: absorption spectrum of BV complex; anaerobic bilin reductase assay with HPLC
Type in all cases: biochemical
Details in all cases: ferredoxin (Synechococcus sp. PCC 7002), FNR, NADPH 100 uM; 10 uM BV, 10 uM PubS; pH 8.5, 30 °C
[1] = biological target: T1, ΔΝ_PpPubS (PpPubS, PubS) (Physcomitrium patens, UniProt I3TC50, E240A/N310R)
T1 construct: residues 1-55 (N-terminal disordered region) deleted; N-terminal His-tag, pET28a, synthetic codon-optimised gene, E. coli C41

[2] = biological target: T2, ΔΝ_PpPubS (PpPubS, PubS) (Physcomitrium patens, UniProt I3TC50, N310R)
T2 construct: residues 1-55 (N-terminal disordered region) deleted; N-terminal His-tag, pET28a, synthetic codon-optimised gene, E. coli C41

[3] = biological target: T3, ΔΝ_PpPubS (PpPubS, PubS) (Physcomitrium patens, UniProt I3TC50, F238A/N310R)
T3 construct: residues 1-55 (N-terminal disordered region) deleted; N-terminal His-tag, pET28a, synthetic codon-optimised gene, E. coli C41
T3 sequence (I3TC50 entry or part of it F238A/N310R): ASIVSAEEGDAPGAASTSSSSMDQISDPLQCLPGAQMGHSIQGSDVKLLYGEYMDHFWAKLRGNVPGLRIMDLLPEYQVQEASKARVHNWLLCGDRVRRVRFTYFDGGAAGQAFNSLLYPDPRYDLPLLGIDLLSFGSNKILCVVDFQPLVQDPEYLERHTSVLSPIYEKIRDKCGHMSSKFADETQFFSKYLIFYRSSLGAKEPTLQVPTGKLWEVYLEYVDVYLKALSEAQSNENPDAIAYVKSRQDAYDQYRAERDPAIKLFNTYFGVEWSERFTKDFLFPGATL

T1 sequence (I3TC50 entry or part of it E240A/N310R): as the sequence (I3TC50 entry or part of it F238A/N310R) above, with A183F, E185A counted along it
T2 sequence (I3TC50 entry or part of it N310R): as the sequence (I3TC50 entry or part of it F238A/N310R) above, with A183F counted along it

C=CC1=C(C)C(=Cc2[nH]c(C=C3N=C(C=C4NC(=O)C(C)=C4C=C)C(C)=C3CCC(=O)O)c(CCC(=O)O)c2C)NC1=O [biliverdin IXα]
absorption spectrum of BV complex; anaerobic bilin reductase assay with HPLC [1]: Spectroscopic observations of these variants showed a decrease in BV after the addition of NADPH
absorption spectrum of BV complex; anaerobic bilin reductase assay with HPLC [2]: PpPubS_N310R exhibited a decrease in BV absorbance similar to the wild-type molecule
absorption spectrum of BV complex; anaerobic bilin reductase assay with HPLC [3]: Spectroscopic observations of these variants showed a decrease in BV after the addition of NADPH

Source: paper PMC11879140, “Engineering of Phycourobilin Synthase: PubS to a Two-Electron Reductase” (Plant and Cell Physiology, 2024)
